Data as given in patent US9828369B2, “Isoquinoline derivatives useful as inhibitors of diacylglyceride O-acyltransferase 2” (Merck Sharp & Dohme Corp., priority 2014, dated 2017).

molecular target: hDGAT2 (Homo sapiens (Human), UniProt Q96PD7); assay: DGAT2 enzymatic activity assay (triolein formation, LC/MS/MS); conditions: not given
Sequence (Q96PD7 whole entry): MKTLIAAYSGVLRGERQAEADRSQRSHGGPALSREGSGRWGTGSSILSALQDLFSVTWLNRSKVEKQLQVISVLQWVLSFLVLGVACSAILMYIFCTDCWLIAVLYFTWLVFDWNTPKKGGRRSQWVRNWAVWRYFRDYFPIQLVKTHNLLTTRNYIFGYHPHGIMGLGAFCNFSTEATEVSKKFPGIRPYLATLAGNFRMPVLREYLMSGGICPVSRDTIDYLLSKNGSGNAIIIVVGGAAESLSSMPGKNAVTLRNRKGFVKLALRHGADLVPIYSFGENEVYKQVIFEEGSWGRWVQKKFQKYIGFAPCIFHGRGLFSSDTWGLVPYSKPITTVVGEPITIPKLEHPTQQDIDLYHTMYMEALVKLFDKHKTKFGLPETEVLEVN

Row | Structure (SMILES) | IC50
1 | COc1cccc(-c2ccc(CNC(=O)[C@@H]3COC(c4ccccc4)=N3)c3cnccc23)c1 (racemic) [Example 42, (R/S)-N-((5-(3-methoxyphenyl)isoquinolin-8-yl)methyl)-2-phenyl-4,5-dihydrooxazole-4-carboxamide] | 3.55 µM
2 | CC[C@H](C(=O)NCc1ccc(-c2cccc(OC)c2)c2ccncc12)c1ccc(C(F)(F)F)c(F)c1 (racemic) [Example 126, (R/S)-2-(3-fluoro-4-(trifluoromethyl)phenyl)-N-((5-(3-methoxyphenyl)isoquinolin-8-yl)methyl)butanamide] | 0.373 µM
3 | COc1cccc(-c2ccc(CNC(=O)[C@H](C)c3ccc4cc(OC)ccc4c3)c3cnccc23)c1 (racemic) [Example 142, (R/S)-2-(6-methoxynaphthalen-2-yl)-N-((5-(3-methoxyphenyl)isoquinolin-8-yl)methyl)propanamide] | 0.118 µM
4 | COc1cccc(-c2ccc(CNC(=O)[C@H](C)c3ccc(CC(C)C)cc3)c3cnccc23)c1 (racemic) [Example 146, (R/S)-2-(4-isobutylphenyl)-N-((5-(3-methoxyphenyl)isoquinolin-8-yl)methyl)propanamide] | 0.923 µM
5 | COC(=O)c1cccc(-c2ccc(CNC(=O)c3nccc4ccccc34)c3cnccc23)c1 [Example 11, 8-((isoquinoline-1-carboxamido)methyl)-5-(3-(methoxycarbonyl)phenyl) isoquinolin-2-ium] | 0.163 µM

same assay, conditions: read-out: IC50 values for inhibition of DGAT2; membrane prep of Sf-9 cells expressing hDGAT2; 25 μM diolein, 10 μM oleoyl-CoA; room temperature; triolein by LC/MS/MS

Row | Structure (SMILES) | IC50
6 | N#Cc1cccc(-c2ccc(CNC(=O)[C@@H]3C[C@H]3c3ccccc3)c3cnccc23)c1 (relative stereo) [Example 16, (trans)-N-((5-(3-cyanophenyl)isoquinolin-8-yl)methyl)-2-phenylcyclopropanecarboxamide] | 3.47 µM
7 | COc1ccc([C@@H]2C[C@@H]2C(=O)NCc2ccc(-c3cccc(OC)c3)c3ccncc23)cc1 (relative stereo) [Example 24, (cis)-2-(4-methoxyphenyl)-N-((5-(3-methoxyphenyl)isoquinolin-8-yl)methyl)cyclopropanecarboxamide] | 0.589 µM
8 | COc1cccc(-c2ccc(CNC(=O)[C@H]3C[C@@H]3c3nc(C)no3)c3cnccc23)c1 (relative stereo) [Example 108, (trans)-N-((5-(3-methoxyphenyl)isoquinolin-8-yl)methyl)-2-(3-methyl-1,2,4-oxadiazol-5-yl) cyclopropanecarboxamide] | 0.589 µM
9 | COc1cccc(-c2ccc(CNC(=O)[C@@H]3C[C@@H]3c3ccc(C(F)(F)F)cc3)c3cnccc23)c1 (relative stereo) [Example 144, (cis)-N-((5-(3-methoxyphenyl)isoquinolin-8-yl)methyl)-2-(4-(trifluoromethyl)phenyl) cyclopropanecarboxamide] | 2.56 µM
10 | COC(=O)c1cccc(-c2ccc(CNC(=O)Cc3ccc(C(F)(F)F)cc3)c3cnccc23)c1 [Example 2, methyl 3-(8-((2-(4-(trifluoromethyl)phenyl)acetamido)methyl)isoquinolin-5-yl)benzoate] | 0.0856 µM
11 | COC(=O)c1cccc(-c2ccc(CNC(=O)[C@@H]3C[C@H]3c3ccccc3)c3cnccc23)c1 [Example 3, methyl 3-(8-(((1R,2R)-2-phenylcyclopropanecarboxamido)methyl)isoquinolin-5-yl)benzoate] | 0.0827 µM
12 | COC(=O)c1cccc(-c2ccc(CNC(=O)C3CC3c3nc(C)no3)c3cnccc23)c1 (stereo not shown) [Example 4, methyl 3-(8-((2-(3-methyl-1,2,4-oxadiazol-5-yl)cyclopropane-carboxamido)methyl)isoquinolin-5-yl)benzoate] | 0.0965 µM
13 | COC(=O)c1cccc(-c2ccc(CNC(=O)C3CCN(c4ccc(C(F)(F)F)cc4)CC3)c3cnccc23)c1 [Example 5, methyl 3-(8-((1-(4-(trifluoromethyl)phenyl)piperidine-4-carboxamido)methyl)isoquinolin-5-yl)benzoate] | 0.1 µM
14 | COC(=O)c1cccc(-c2ccc(CNC(=O)Cc3ccc(Oc4ccccc4)cc3)c3cnccc23)c1 [Example 6, methyl 3-(8-((2-(4-phenoxyphenyl)acetamido)methyl)isoquinolin-5-yl)benzoate] | 0.101 µM
15 | COC(=O)c1cccc(-c2ccc(CNC(=O)c3cc(C(C)(C)C)nn3C)c3cnccc23)c1 [Example 7, methyl 3-(8-((3-(tert-butyl)-1-methyl-1H-pyrazole-5-carboxamido)methyl)isoquinolin-5-yl)benzoate] | 0.111 µM
16 | COC(=O)c1cccc(-c2ccc(CNC(=O)c3cnn(-c4ccccc4)c3C(F)(F)F)c3cnccc23)c1 [Example 8, methyl 3-(8-((1-phenyl-5-(trifluoromethyl)-1H-pyrazole-4-carboxamido)methyl)isoquinolin-5-yl)benzoate] | 0.123 µM
17 | CCCc1cc(C(=O)NCc2ccc(-c3cccc(C(=O)OC)c3)c3ccncc23)n(C)n1 [Example 9, methyl 3-(8-((1-methyl-3-propyl-1H-pyrazole-5-carboxamido)methyl)isoquinolin-5-yl)benzoate] | 0.132 µM
18 | COC(=O)c1cccc(-c2ccc(CNC(=O)C3CC34CCCC4)c3cnccc23)c1 (stereo not shown) [Example 10, methyl 3-(8-((spiro[2.4]heptane-1-carboxamido)methyl)isoquinolin-5-yl)benzoate] | 0.162 µM
19 | COC(=O)c1cccc(-c2ccc(CNC(=O)c3cccc4cnccc34)c3cnccc23)c1 [Example 12, 8-((isoquinoline-5-carboxamido)methyl)-5-(3-(methoxycarbonyl)phenyl) isoquinolin-2-ium] | 0.196 µM
20 | COC(=O)c1cccc(-c2ccc(CNC(=O)c3ccnn3C)c3cnccc23)c1 [Example 13, methyl 3-(8-((1-methyl-1H-pyrazole-5-carboxamido)methyl)isoquinolin-5-yl)benzoate] | 1.23 µM
21 | CCOC(=O)c1cccc(-c2ccc(CNC(=O)C3CC3c3ccccc3)c3cnccc23)c1 (stereo not shown) [Example 14, ethyl 3-(8-((2-phenylcyclopropanecarboxamido)methyl)isoquinolin-5-yl)benzoate] | 0.071 µM

Row | Structure (SMILES) | IC50
22 | CCOc1cccc(-c2ccc(CNC(=O)C3CC3c3ccccc3)c3cnccc23)c1 (stereo not shown) [Example 15, N-((5-(3-ethoxyphenyl)isoquinolin-8-yl)methyl)-2-phenylcyclopropanecarboxamide] | 0.115 µM
23 | O=C(NCc1ccc(-c2cccc(OC(F)(F)F)c2)c2ccncc12)C1CC1c1ccccc1 (stereo not shown) [Example 17, 2-phenyl-N-((5-(3-(trifluoromethoxy)phenyl)isoquinolin-8-yl)methyl)cyclopropanecarboxamide] | 3.76 µM
24 | COCc1cccc(-c2ccc(CNC(=O)C3CC3c3ccccc3)c3cnccc23)c1 (stereo not shown) [Example 18, N-((5-(3-(methoxymethyl)phenyl)isoquinolin-8-yl)methyl)-2-phenylcyclopropanecarboxamide] | 0.278 µM
25 | CC(C)Oc1cccc(-c2ccc(CNC(=O)C3CC3c3ccccc3)c3cnccc23)c1 (stereo not shown) [Example 19, N-((5-(3-isopropoxyphenyl)isoquinolin-8-yl)methyl)-2-phenylcyclopropanecarboxamide] | 0.888 µM
26 | CC(C)OC(=O)c1cccc(-c2ccc(CNC(=O)C3CC3c3ccccc3)c3cnccc23)c1 (stereo not shown) [Example 20, isopropyl 3-(8-((2-phenylcyclopropanecarboxamido)methyl)isoquinolin-5-yl)benzoate] | 1.86 µM
27 | NC(=O)c1cccc(-c2ccc(CNC(=O)C3CC3c3ccccc3)c3cnccc23)c1 (stereo not shown) [Example 22, 3-(8-((2-phenylcyclopropanecarboxamido)methyl)isoquinolin-5-yl)benzamide] | 6.27 µM
28 | COc1ccc([C@H]2C[C@@H]2C(=O)NCc2ccc(-c3cccc(OC)c3)c3ccncc23)cc1 [Example 23, (1S,2S)-2-(4-methoxyphenyl)-N-((5-(3-methoxyphenyl)isoquinolin-8-yl)methyl)cyclopropanecarboxamide] | 9.96 µM
29 | COc1cccc(-c2ccc(CNC(=O)c3cc(C4CC4)on3)c3cnccc23)c1 [Example 26, 5-cyclopropyl-N-((5-(3-methoxyphenyl)isoquinolin-8-yl)methyl)isoxazole-3-carboxamide] | 2.05 µM
30 | COc1cccc(-c2ccc(CNC(=O)CC(c3ccccc3)c3ccco3)c3cnccc23)c1 (stereo not shown) [Example 27, 3-(furan-2-yl)-N-((5-(3-methoxyphenyl)isoquinolin-8-yl)methyl)-3-phenylpropanamide] | 6.83 µM
31 | COc1cccc(-c2ccc(CNC(=O)c3cncc(Br)c3)c3cnccc23)c1 [Example 28, 5-bromo-N-((5-(3-methoxyphenyl)isoquinolin-8-yl)methyl)nicotinamide] | 3.93 µM
32 | COc1cccc(-c2ccc(CNC(=O)c3cc(C(F)(F)F)n[nH]3)c3cnccc23)c1 [Example 29, N-((5-(3-methoxyphenyl)isoquinolin-8-yl)methyl)-3-(trifluoromethyl)-1H-pyrazole-5-carboxamide] | 1.77 µM
33 | COc1cccc(-c2ccc(CNC(=O)CCc3nc(-c4ccccc4)no3)c3cnccc23)c1 [Example 30, N-((5-(3-methoxyphenyl)isoquinolin-8-yl)methyl)-3-(3-phenyl-1,2,4-oxadiazol-5-yl)propanamide] | 0.818 µM
34 | COc1cccc(-c2ccc(CNC(=O)Cc3cccc(Cl)c3Cl)c3cnccc23)c1 [Example 31, 2-(2,3-dichlorophenyl)-N-((5-(3-methoxyphenyl)isoquinolin-8-yl)methyl)acetamide] | 0.883 µM
35 | COc1cccc(-c2ccc(CNC(=O)c3cccc4cccnc34)c3cnccc23)c1 [Example 32, N-((5-(3-methoxyphenyl)isoquinolin-8-yl)methyl)quinoline-8-carboxamide] | 2.01 µM
36 | COc1cccc(-c2ccc(CNC(=O)c3cncc4ccccc34)c3cnccc23)c1 [Example 33, N-((5-(3-methoxyphenyl)isoquinolin-8-yl)methyl)isoquinoline-4-carboxamide] | 3.41 µM
37 | COc1cccc(-c2ccc(CNC(=O)c3cccc(-n4cccn4)c3)c3cnccc23)c1 [Example 34, N-((5-(3-methoxyphenyl)isoquinolin-8-yl)methyl)-3-(1H-pyrazol-1-yl)benzamide] | 7.36 µM
